Test results from ChEMBL document CHEMBL1649268, “Comparative in vitro activity profile of oritavancin against recent gram-positive clinical isolates” (2009).
Converted amounts (≈) assume the structure as drawn.

Columns and labels:
Type in all cases: functional
Streptococcus pneumoniae [1] = assay: Antimicrobial activity against penicillin-susceptible Streptococcus pneumoniae clinical isolates assessed as percent susceptible isolates by broth microdilution method
Streptococcus pneumoniae [2] = assay: Antimicrobial activity against penicillin-intermediate Streptococcus pneumoniae clinical isolates by broth microdilution method
Streptococcus pneumoniae [3] = assay: Antimicrobial activity against penicillin-resistant Streptococcus pneumoniae clinical isolates assessed as resistant isolates by broth microdilution method
Streptococcus pneumoniae [4] = assay: Antimicrobial activity against Streptococcus pneumoniae clinical isolates assessed as percent susceptible isolates by broth microdilution method
Streptococcus pneumoniae [5] = assay: Antimicrobial activity against penicillin-susceptible Streptococcus pneumoniae clinical isolates by broth microdilution method
Streptococcus pneumoniae [6] = assay: Antimicrobial activity against penicillin-resistant Streptococcus pneumoniae clinical isolates by broth microdilution method
Streptococcus pneumoniae [7] = assay: Antimicrobial activity against penicillin-susceptible Streptococcus pneumoniae clinical isolates assessed as resistant isolates by broth microdilution method
Streptococcus pneumoniae [8] = assay: Antimicrobial activity against penicillin-intermediate Streptococcus pneumoniae clinical isolates assessed as resistant isolates by broth microdilution method
Streptococcus pneumoniae [9] = assay: Antimicrobial activity against Streptococcus pneumoniae clinical isolates assessed as resistant isolates by broth microdilution method
Streptococcus pneumoniae [10] = assay: Antimicrobial activity against Streptococcus pneumoniae clinical isolates by broth microdilution method
Streptococcus pneumoniae [11] = assay: Antimicrobial activity against penicillin-intermediate Streptococcus pneumoniae clinical isolates assessed as percent susceptible isolates by broth microdilution method
Enterococcus faecium [12] = assay: Antimicrobial activity against vancomycin-susceptible Enterococcus faecium clinical isolates assessed as resistant isolates by broth microdilution method
Enterococcus faecium [13] = assay: Antimicrobial activity against vancomycin-nonsusceptible Enterococcus faecium clinical isolates by broth microdilution method
Enterococcus faecium [14] = assay: Antimicrobial activity against Enterococcus faecium expressing VanA gene clinical isolates assessed as percent susceptible isolates by broth microdilution method
Enterococcus faecium [15] = assay: Antimicrobial activity against Enterococcus faecium clinical isolates by broth microdilution method
Enterococcus faecalis [16] = assay: Antimicrobial activity against Enterococcus faecalis clinical isolates assessed as resistant isolates by broth microdilution method
Enterococcus faecium [17] = assay: Antimicrobial activity against Enterococcus faecium clinical isolates assessed as resistant isolates by broth microdilution method
Enterococcus faecium [18] = assay: Antimicrobial activity against vancomycin-susceptible Enterococcus faecium clinical isolates by broth microdilution method
Enterococcus faecalis [19] = assay: Antimicrobial activity against Enterococcus faecalis expressing VanA gene clinical isolates assessed as resistant isolates by broth microdilution method
Enterococcus faecalis [20] = assay: Antimicrobial activity against vancomycin-susceptible Enterococcus faecalis clinical isolates assessed as resistant isolates by broth microdilution method
Enterococcus faecium [21] = assay: Antimicrobial activity against vancomycin-nonsusceptible Enterococcus faecium clinical isolates assessed as percent susceptible isolates by broth microdilution method
Enterococcus faecium [22] = assay: Antimicrobial activity against Enterococcus faecium expressing VanA gene clinical isolates by broth microdilution method
Enterococcus faecium [23] = assay: Antimicrobial activity against Enterococcus faecium expressing VanB gene clinical isolates assessed as percent susceptible isolates by broth microdilution method
Enterococcus faecalis [24] = assay: Antimicrobial activity against vancomycin-nonsusceptible Enterococcus faecalis clinical isolates assessed as resistant isolates by broth microdilution method
Enterococcus faecalis [25] = assay: Antimicrobial activity against Enterococcus faecalis expressing VanA gene clinical isolates assessed as percent susceptible isolates by broth microdilution method
Enterococcus faecalis [26] = assay: Antimicrobial activity against vancomycin-nonsusceptible Enterococcus faecalis clinical isolates by broth microdilution method
Enterococcus faecalis [27] = assay: Antimicrobial activity against vancomycin-nonsusceptible Enterococcus faecalis clinical isolates assessed as percent susceptible isolates by broth microdilution method
Enterococcus faecalis [28] = assay: Antimicrobial activity against Enterococcus faecalis clinical isolates assessed as percent susceptible isolates by broth microdilution method
Enterococcus faecium [29] = assay: Antimicrobial activity against Enterococcus faecium clinical isolates assessed as percent susceptible isolates by broth microdilution method
Enterococcus faecalis [30] = assay: Antimicrobial activity against Enterococcus faecalis expressing VanA gene clinical isolates by broth microdilution method
Enterococcus faecalis [31] = assay: Antimicrobial activity against Enterococcus faecalis expressing VanB gene clinical isolates by broth microdilution method
Enterococcus faecalis [32] = assay: Antimicrobial activity against vancomycin-susceptible Enterococcus faecalis clinical isolates assessed as percent susceptible isolates by broth microdilution method
Enterococcus faecium [33] = assay: Antimicrobial activity against Enterococcus faecium expressing VanB gene clinical isolates assessed as resistant isolates by broth microdilution method
Enterococcus faecium [34] = assay: Antimicrobial activity against Enterococcus faecium expressing VanA gene clinical isolates assessed as resistant isolates by broth microdilution method
Enterococcus faecium [35] = assay: Antimicrobial activity against vancomycin-nonsusceptible Enterococcus faecium clinical isolates assessed as resistant isolates by broth microdilution method
Enterococcus faecium [36] = assay: Antimicrobial activity against vancomycin-susceptible Enterococcus faecium clinical isolates assessed as percent susceptible isolates by broth microdilution method
Enterococcus faecalis [37] = assay: Antimicrobial activity against Enterococcus faecalis clinical isolates by broth microdilution method
Enterococcus faecalis [38] = assay: Antimicrobial activity against vancomycin-susceptible Enterococcus faecalis clinical isolates by broth microdilution method
Enterococcus faecalis [39] = assay: Antimicrobial activity against Enterococcus faecalis expressing VanB gene clinical isolates assessed as percent susceptible isolates by broth microdilution method
Enterococcus faecium [40] = assay: Antimicrobial activity against Enterococcus faecium expressing VanB gene clinical isolates by broth microdilution method
Enterococcus faecalis [41] = assay: Antimicrobial activity against Enterococcus faecalis expressing VanB gene clinical isolates assessed as resistant isolates by broth microdilution method

CC[C@H]1OC(=O)[C@H](C)C(=O)[C@H](C)[C@@H](O[C@@H]2O[C@H](C)C[C@H](N(C)C)[C@H]2O)[C@](C)(OC)C[C@@H](C)C(=O)[C@H](C)[C@H]2N(CCCCn3cnc(-c4cccnc4)c3)C(=O)O[C@]12C [TELITHROMYCIN]
Activity (Streptococcus pneumoniae [1]): 100%
MIC90 (Streptococcus pneumoniae [2]): 0.25 µg/mL (≈ 0.308 µM)
Percent of isolates resistant (Streptococcus pneumoniae [3]): 0%
Activity (Streptococcus pneumoniae [4]): 100%
MIC90 (Streptococcus pneumoniae [5]): 0.015 µg/mL (≈ 0.0185 µM)
MIC90 (Streptococcus pneumoniae [6]): 0.5 µg/mL (≈ 0.616 µM)
Percent of isolates resistant (Streptococcus pneumoniae [7]): 0%
Percent of isolates resistant (Streptococcus pneumoniae [8]): 0%
Resistant isolates (Streptococcus pneumoniae [9]): 0%
MIC90 (Streptococcus pneumoniae [10]): 0.25 µg/mL (≈ 0.308 µM)
Activity (Streptococcus pneumoniae [11]): 100%

CC1(C)S[C@@H]2[C@H](NC(=O)[C@H](N)c3ccccc3)C(=O)N2[C@H]1C(=O)O [AMPICILLIN]
Activity (Enterococcus faecium [12]): 72.3%
MIC90 (Enterococcus faecium [13]): > 256 µg/mL
Activity (Enterococcus faecium [14]): 1%
MIC90 (Enterococcus faecium [15]): > 256 µg/mL
Activity (Enterococcus faecalis [16]): 0.1%
Activity (Enterococcus faecium [17]): 87.3%
MIC90 (Enterococcus faecium [18]): 256 µg/mL (≈ 733 µM)
Activity (Enterococcus faecalis [19]): 0%
Activity (Enterococcus faecalis [20]): 0.1%
Activity (Enterococcus faecium [21]): 1.5%
MIC90 (Enterococcus faecium [22]): > 256 µg/mL
Activity (Enterococcus faecium [23]): 3.4%
Activity (Enterococcus faecalis [24]): 0%
Activity (Enterococcus faecalis [25]): 100%
MIC90 (Enterococcus faecalis [26]): 2 µg/mL (≈ 5.72 µM)
Activity (Enterococcus faecalis [27]): 100%
Activity (Enterococcus faecalis [28]): 99.9%
Activity (Enterococcus faecium [29]): 12.7%
MIC90 (Enterococcus faecalis [30]): 2 µg/mL (≈ 5.72 µM)
MIC90 (Enterococcus faecalis [31]): 2 µg/mL (≈ 5.72 µM)
Activity (Enterococcus faecalis [32]): 99.9%
Activity (Enterococcus faecium [33]): 96.6%
Activity (Enterococcus faecium [34]): 99%
Activity (Enterococcus faecium [35]): 98.5%
Activity (Enterococcus faecium [36]): 27.7%
MIC90 (Enterococcus faecalis [37]): 1 µg/mL (≈ 2.86 µM)
MIC90 (Enterococcus faecalis [38]): 1 µg/mL (≈ 2.86 µM)
Activity (Enterococcus faecalis [39]): 100%
MIC90 (Enterococcus faecium [40]): > 256 µg/mL
Activity (Enterococcus faecalis [41]): 0%

CN[C@@H]1[C@H](O[C@H]2[C@H](O[C@H]3[C@H](O)[C@@H](O)[C@H](N=C(N)N)[C@@H](O)[C@@H]3N=C(N)N)O[C@@H](C)[C@]2(O)C=O)O[C@@H](CO)[C@H](O)[C@H]1O [STREPTOMYCIN]
Activity (Enterococcus faecium [12]): 44%
MIC (Enterococcus faecium [13]): ≥ 1000 µg/mL
MIC90 (Enterococcus faecium [13]): > 1000 µg/mL
Activity (Enterococcus faecium [14]): 36.1%
MIC (Enterococcus faecium [15]): ≥ 1000 µg/mL
MIC90 (Enterococcus faecium [15]): > 1000 µg/mL
Activity (Enterococcus faecalis [16]): 29.9%
Activity (Enterococcus faecium [17]): 55.2%
MIC (Enterococcus faecium [18]): ≥ 1000 µg/mL
MIC90 (Enterococcus faecium [18]): > 1000 µg/mL
Activity (Enterococcus faecalis [19]): 50.8%
Activity (Enterococcus faecalis [20]): 28.7%
Activity (Enterococcus faecium [21]): 36.5%
MIC (Enterococcus faecium [22]): ≥ 1000 µg/mL
MIC90 (Enterococcus faecium [22]): > 1000 µg/mL
Activity (Enterococcus faecium [23]): 34.5%
Activity (Enterococcus faecalis [24]): 51.7%
Activity (Enterococcus faecalis [25]): 49.2%
MIC (Enterococcus faecalis [26]): ≥ 1000 µg/mL
MIC90 (Enterococcus faecalis [26]): > 1000 µg/mL
Activity (Enterococcus faecalis [27]): 48.3%
Activity (Enterococcus faecalis [28]): 70.1%
Activity (Enterococcus faecium [29]): 44.8%
MIC (Enterococcus faecalis [30]): ≥ 1000 µg/mL
MIC90 (Enterococcus faecalis [30]): > 1000 µg/mL
MIC (Enterococcus faecalis [31]): ≥ 1000 µg/mL
MIC90 (Enterococcus faecalis [31]): > 1000 µg/mL
Activity (Enterococcus faecalis [32]): 71.3%
Activity (Enterococcus faecium [33]): 65.5%
Activity (Enterococcus faecium [34]): 63.9%
Activity (Enterococcus faecium [35]): 63.5%
Activity (Enterococcus faecium [36]): 56%
MIC (Enterococcus faecalis [37]): ≥ 1000 µg/mL
MIC90 (Enterococcus faecalis [37]): > 1000 µg/mL
MIC (Enterococcus faecalis [38]): ≥ 1000 µg/mL
MIC90 (Enterococcus faecalis [38]): > 1000 µg/mL
Activity (Enterococcus faecalis [39]): 41.2%
MIC (Enterococcus faecium [40]): ≥ 1000 µg/mL
MIC90 (Enterococcus faecium [40]): > 1000 µg/mL
Activity (Enterococcus faecalis [41]): 58.8%
